Data on eight molecules can be found in patent publication US20230183239A1, “ECTONUCLEOTIDE PYROPHOSPHATASE-PHOSPHODIESTERASE 1 (ENPP-1) INHIBITORS AND USES THEREOF” (AbbVie Inc., priority 2017, published 2023).

In test [1] the target is T1, ENPP1 (Homo sapiens, UniProt P22413).
T1 sequence (P22413 1-925): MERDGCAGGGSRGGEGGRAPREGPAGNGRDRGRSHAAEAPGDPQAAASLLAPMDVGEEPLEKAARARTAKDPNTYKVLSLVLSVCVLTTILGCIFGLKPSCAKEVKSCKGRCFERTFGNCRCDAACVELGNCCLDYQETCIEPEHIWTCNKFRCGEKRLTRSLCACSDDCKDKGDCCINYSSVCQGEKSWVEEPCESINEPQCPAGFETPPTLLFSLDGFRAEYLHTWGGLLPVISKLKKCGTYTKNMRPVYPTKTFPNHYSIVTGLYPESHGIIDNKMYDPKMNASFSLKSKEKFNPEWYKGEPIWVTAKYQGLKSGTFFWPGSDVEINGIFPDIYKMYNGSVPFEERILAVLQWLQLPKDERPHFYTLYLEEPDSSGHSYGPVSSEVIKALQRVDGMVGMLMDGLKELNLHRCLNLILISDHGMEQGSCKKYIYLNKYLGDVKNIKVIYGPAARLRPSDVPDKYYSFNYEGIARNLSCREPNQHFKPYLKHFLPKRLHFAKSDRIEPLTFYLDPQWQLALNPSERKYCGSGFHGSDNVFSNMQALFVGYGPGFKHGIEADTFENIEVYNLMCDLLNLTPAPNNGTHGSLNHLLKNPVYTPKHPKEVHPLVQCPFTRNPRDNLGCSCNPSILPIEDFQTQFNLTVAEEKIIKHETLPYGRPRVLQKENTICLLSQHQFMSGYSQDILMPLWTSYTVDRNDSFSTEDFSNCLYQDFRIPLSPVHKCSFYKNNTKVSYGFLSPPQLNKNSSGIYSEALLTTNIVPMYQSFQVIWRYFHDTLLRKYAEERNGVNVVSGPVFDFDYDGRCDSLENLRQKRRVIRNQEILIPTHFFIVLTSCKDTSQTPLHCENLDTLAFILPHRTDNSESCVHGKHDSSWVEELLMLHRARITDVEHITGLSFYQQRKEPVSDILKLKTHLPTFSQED
Put plainly: ENPP1 enzyme assay with AMP-pNP substrate (hydrolysis of ATP analog). The format is biochemical. In a few lines: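 Reactions ran 20 min at 37 °C, pH 8.5 Tris buffer with NaCl, CaCl2, ZnCl2, using 300 µM AMP-pNP and 60 ng/well recombinant human ENPP1; inhibitor range 10 µM–30 pM, duplicates.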

Test [2] deals with T1, ENPP1. The test is described as follows: Indirect quantitation of 2',3'-cGAMP hydrolysis (AMP-Glo Assay kit). The format is biochemical.
The next test deals with IFNβ gene transcription. The format is cell-based, human. Conditions: 3, 6, and 19 hrs exposure; VACV-70 stimulated PBMCs.
The target in test [3] is T1, ENPP1. The test is described as follows: Substrate selectivity ratio, inhibition of cGAMP hydrolysis versus ATP hydrolysis. Format: biochemical. As to conditions: ratio Ki AMP-pNP / Ki cGAMP. On the procedure: The selectivity ratios for inhibition of cGAMP hydrolysis versus ATP hydrolysis were then calculated as follows: […]
A further test concerns IFN β gene transcription. The test is described as follows: IFNβ mRNA in cGAMP-stimulated human foreskin fibroblasts (HFF-1). Format: cell-based. Conditions: cGAMP-stimulated human foreskin fibroblast cells (HFF-1). On the procedure: Human Foreskin Fibroblasts
The cell line was sourced from ATCC (Cat# SCRC-1041). Cells were cultured in 15% fetal bovine serum-containing growth medium. They were seeded in a 48 well plate @ 100,000 per well (300 µL), and incubated for 1 hour at 37° C., 5% CO2. 100 µl of compound (0.05 µM to 5 µM final concentrations) was added 30 min prior to addition of cGAMP (12.5 µM & 25 µM final concentrations). The plate was incubated for 3 hrs at 37° C., 5% CO2. Cells were washed with PBS and 250 µl of RLT reagent (provided in the RNA isolation kit (RNeasy Mini kit, Qiagen Cat # 74106). was added to each well. RNA was isolated using this kit as per the given protocol. RNA was converted to cDNA using a Bio-Rad cDNA conversion kit (iScript® cDNA synthesis kit, Bio-Rad Cat #170-8891). IFN βgene transcription was quantitated using SYBR green dye in an RT-PCR instrument. The methods and protocol were the same as for PBMCs, except that Interferon mRNA levels were normalized to GAPDH mRNA.

Test [4] addresses T1, ENPP1. The test is described as follows: ENPP1 enzyme assay with cGAMP substrate (AMP-Glo). Conditions: cGAMP substrate; for inhibition at 1 µM: 1 µM compound, read-out: cGAMP: % Inhibition at 1 µM; for Ki: Ki from IC50 by Cheng-Prusoff, read-out: cGAMP: Ki. Details: purchased R&D Systems. The format is biochemical. From the text: Example B1: ENPP1 Enzyme Assay With cGAMP Substrate
Ectonucleotide pyrophosphatase/phosphodiesterase 1 (ENPP-1) is a transmembrane glycoprotein that hydrolyzes nucleotides and nucleotide derivatives with the formation of nucleoside-5’-monophosphates. […] The 5’-AMP formed from the reaction is detected using the AMP-Glo® Kit (Promega). The assay kit contains two reagents. The first reagent terminates the enzymatic reaction, removes ATP (using adenylyl cyclase), and converts 5’-AMP produced into ADP (using polyphosphate: AMP phosphotransferase). The second reagent converts ADP to ATP (using adenylate kinase) and generates light from ATP using the luciferin/luciferase reaction.
Different concentrations of ENPP1 inhibitors are pre-incubated with 5 ng/well of human ENPP-1 enzyme (R&D Systems) for 15 minutes at 37° C. The reaction is initiated by adding 20 µM 2’3’-cGAMP and incubating for 30 minutes at 37° C. The final assay reaction mixture contains a buffer of 50 mM Tris pH 8.0, 250 mM NaCl, 0.5 mM CaCl2, 1 µM ZnCl2 and 1% DMSO. At the end of the incubation, the reaction is stopped by adding 12 µl of AMP-Glo reagent-1 and mixing the reaction uniformly for 5 minutes, followed by incubation at room temperature for one hour. Then 25 µl of AMP Glo reagent-2 is added to the reaction, mixed uniformly with a pipette, and incubated at room temperature for one hour to convert the ADP formed from reagent-1 to ATP and light. The generated light is measured in a Perkin Elmer Victor® instrument.
The IC50 values for percent inhibition versus compound concentration are determined by fitting the inhibition curves using a four-parameter variable slope model in GraphPad Prism® software. Ki values are derived from the IC50 values using the Cheng-Prusoff equation: […]

Test [5] addresses T1, ENPP1. Put plainly: ENPP1 enzyme assay with TMP-pNP substrate. Format: biochemical. Details: purchased R&D Systems. As to conditions: for Ki: Ki from IC50 by Cheng-Prusoff. On the procedure: Example B2: ENPP1 Enzyme Assay With TMP-pNP Substrate
Ectonucleotide pyrophosphatase/phosphodiesterase 1 (ENPP-1) is a transmembrane glycoprotein that hydrolyzes nucleotides and nucleotide derivatives with the formation of nucleotide-5’-monophosphates. ENPP-1 hydrolyzes thymidine 5’monophosphate p-nitrophenyl ester (TMP-pNP) to nucleotide-5’-monophosphate and p-nitrophenol, which is a chromogenic product. The amount of p-nitrophenol product formed is measured using its absorbance at 405 nm, which is directly proportional to enzyme activity. Different concentrations of inhibitors are pre-incubated with 15 ng/well of human ENPP-1 enzyme (R&D Systems) for 15 minutes at 37° C. The reaction is initiated by adding 200 µM TMP-pNP and incubating for 10 minutes at 37° C. The final assay reaction mixture contains a buffer of 50 mM Tris pH 8.0, 250 mM NaCl, 0.5 mM CaCl2, 1 µM ZnCl2 and 1% DMSO. The amount of product formed is measured directly in a Tecan® spectrophotometer. Maximal activity control samples (containing enzyme, substrate, and buffer in the absence of ENPP1 inhibitors: MAX) and background control samples (containing enzyme, substrate, and buffer plus a fully inhibitory concentration (3 µM) of the reference ENPP1 Inhibitor, Example 333: MIN) are simultaneously evaluated in order to calculate the percent inhibition at each compound concentration as follows:
The IC50 values for percent inhibition versus compound concentration are determined by fitting the inhibition curves (percent inhibition versus inhibitor concentration) using a four-parameter variable slope model in GraphPad Prism® software. Ki values are derived from the IC50 values using the Cheng-Prusoff equation: […]

[6] abbreviates: AMP-pNP substrate (ATP analog), Ki from IC50 by Cheng-Prusoff, read-out: ENPP1 Inhibition _AMP-pNP: Ki.
The mark [7] stands for this setting: cGAMP substrate, Ki from IC50 by Cheng-Prusoff, read-out: ENPP1 Inhibition -cGAMP: Ki.

Usually Ki stands for the dissociation constant of the complex between target and ligand, obtained from inhibition or displacement. On to `COc1ccc2c(Oc3ccc(NS(N)(=O)=O)cc3)ccnc2c1` [Example 54, N-(4-((7-methoxyquinolin-4-yl)oxy)phenyl)sulfamide], for which the Ki is 100 to 1000 nM at ENPP1 [1] and < 100 nM on ENPP1 [2]. Further, the “transcription of IFNβ” value with IFNβ gene transcription is “enhances transcription of IFNβ”.
What is called inhibition is the percentage by which the read-out fell short of the control. Consider `COc1cc2ncnc(-c3ccc4c(c3)CN(S(N)(=O)=O)CC4)c2cc1OC` [Example 32, 7-(6,7-dimethoxyquinazolin-4-yl)-3,4-dihydroisoquinoline-2(1H)-sulfonamide], for which the Ki at ENPP1 [1] (setting [6]) and at ENPP1 [2] (setting [7]) was < 100 nM throughout. Also, on ENPP1 [3], the “Substrate Selectivity: Ki_AMP-pNP/Ki_cGAMP” value (shortened to “Substrate Selectivity”) is on record as 24.3. In addition, in the test on IFN β gene transcription, the “transcription of IFNβ” value is given as “enhances transcription of IFNβ”. The inhibition at 1 µM at ENPP1 [4] is > 75%.
For `COc1ccc2c(-c3ccc(CNS(N)(=O)=O)cc3)ccnc2c1` [Example 55, N-(4-(7-methoxyquinolin-4-yl)benzyl)sulfamide], the “transcription of IFNβ” value with IFN β gene transcription is given as “enhances transcription of IFNβ”.
As to `COc1ccc2c(Oc3ccc(S(N)(=O)=O)cc3)ccnc2c1` [Example 58, 4-((7-methoxyquinolin-4-yl)oxy)benzenesulfonamide], the “transcription of IFNβ” value in the test on IFNβ gene transcription was “enhances transcription of IFNβ”.
On to `COc1cc2ncnc(NCc3ccc(NS(N)(=O)=O)cc3)c2cc1OC` [Example 34, N-(4-(((6,7-dimethoxyquinazolin-4-yl)amino)methyl)phenyl) sulfamidetrifluoroacetate], for which the Ki on ENPP1 [1] (setting [6]) is 100 to 1000 nM; at ENPP1 [2] (setting [7]), < 100 nM; on ENPP1 [4], < 100 nM; at ENPP1 [5], < 100 nM. For the same molecule, the “Substrate Selectivity” value at ENPP1 [3] came out at 17.4. For the same molecule, at ENPP1 [4], the inhibition at 1 µM is > 75%.
Turning to `COc1cc2ncc(C#N)c(N3CCC4(CC3)CCN(S(N)(=O)=O)C4)c2cc1F` [Example 57, 8-(3-cyano-6-fluoro-7-methoxyquinolin-4-yl)-2,8-diazaspiro[4.5]decane-2-sulfonamide], the Ki at ENPP1 [1] (setting [6]) and at ENPP1 [2] (setting [7]) was < 100 nM throughout. In addition, at ENPP1 [3], the “Substrate Selectivity” value stood at 24.7. For the same molecule, the “transcription of IFNβ” value with IFN β gene transcription is reported as “enhances .transcription of IFNβ”.
Turning to `CNc1nc(N2CCC(CCNS(N)(=O)=O)CC2)c2cc(OC)c(OC)cc2n1` [Example 2, N-(2-(1-(6,7-dimethoxy-2-(methylamino)quinazolin-4-yl)piperidin-4-yl)ethyl)sulfamide], the Ki on ENPP1 [1] (setting [6]) was > 1000 nM; at ENPP1 [2] (setting [7]) it was < 100 nM. Besides, the “Substrate Selectivity” value at ENPP1 [3] is >39.0. On ENPP1 [4], the inhibition at 1 µM was > 75%. In addition, the inhibition at 10 µM at ENPP1 [5] (read-out: TMP-pNP: % inhibition at 10 uM, 10 uM compound) is > 75%.
In the case of `Cn1cnc2ncnc(N3CCC(CCNS(N)(=O)=O)CC3)c21` [Example 22, N-(2-(1-(7-methyl-7H-purin-6-yl)piperidin-4-yl)ethyl)sulfamide], the Ki is > 1000 nM on ENPP1 [1] (setting [6]), < 100 nM at ENPP1 [2] (setting [7]), < 100 nM on ENPP1 [4] and > 1000 nM at ENPP1 [5]. Further, the “Substrate Selectivity” value at ENPP1 [3] is >115.
